According to publication PMC3914206:

How the values were obtained:
Format in all cases: binding
panel of 442 kinases [1] = molecular target: T1, panel of 442 kinases (Homo sapiens, UniProt P10721, L576P); conditions: Compound Concentration 10 µM
T1 construct: purchased KINOMEscan
Source text: (§1) We assessed the selectivity of members of this scaffold using the KINOMEscan methodology across a near comprehensive panel of 442 kinases [[18,27]].

panel of 442 kinases [2] = molecular target: T2, panel of 442 kinases (Homo sapiens, UniProt P37173); conditions: kinase TGFBR2; compound concentration 10 µM
T2 construct: purchased KINOMEscan
Source text: as §1

panel of 442 kinases [3] = molecular target: T3, panel of 442 kinases (Homo sapiens, UniProt O94806); conditions: Compound Concentration 10 µM
T3 construct: purchased KINOMEscan
T3 sequence (O94806 1-890): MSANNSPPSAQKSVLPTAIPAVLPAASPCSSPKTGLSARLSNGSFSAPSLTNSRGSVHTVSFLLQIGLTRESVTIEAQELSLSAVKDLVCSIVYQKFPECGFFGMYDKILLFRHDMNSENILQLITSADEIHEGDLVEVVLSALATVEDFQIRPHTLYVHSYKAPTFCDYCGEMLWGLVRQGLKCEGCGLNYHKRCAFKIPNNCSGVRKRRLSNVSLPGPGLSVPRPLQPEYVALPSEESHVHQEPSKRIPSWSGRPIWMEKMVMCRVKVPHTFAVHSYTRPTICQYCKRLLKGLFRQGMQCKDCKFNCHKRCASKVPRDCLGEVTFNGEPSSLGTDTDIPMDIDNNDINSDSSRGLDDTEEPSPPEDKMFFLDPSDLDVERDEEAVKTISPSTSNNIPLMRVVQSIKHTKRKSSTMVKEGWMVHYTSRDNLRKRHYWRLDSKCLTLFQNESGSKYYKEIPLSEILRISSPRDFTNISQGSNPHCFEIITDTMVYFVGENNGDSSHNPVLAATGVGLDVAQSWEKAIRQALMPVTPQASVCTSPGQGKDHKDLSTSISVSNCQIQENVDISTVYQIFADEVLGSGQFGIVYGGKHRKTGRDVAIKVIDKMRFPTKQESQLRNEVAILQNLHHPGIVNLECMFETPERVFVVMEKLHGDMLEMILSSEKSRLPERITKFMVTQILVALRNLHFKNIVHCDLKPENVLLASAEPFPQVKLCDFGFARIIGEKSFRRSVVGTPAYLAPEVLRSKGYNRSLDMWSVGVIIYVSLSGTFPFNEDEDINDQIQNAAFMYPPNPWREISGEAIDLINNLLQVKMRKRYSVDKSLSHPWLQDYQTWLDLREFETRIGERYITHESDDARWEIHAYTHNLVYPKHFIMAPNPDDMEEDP
Source text: as §1

T1 sequence (P10721 26-976 L576P): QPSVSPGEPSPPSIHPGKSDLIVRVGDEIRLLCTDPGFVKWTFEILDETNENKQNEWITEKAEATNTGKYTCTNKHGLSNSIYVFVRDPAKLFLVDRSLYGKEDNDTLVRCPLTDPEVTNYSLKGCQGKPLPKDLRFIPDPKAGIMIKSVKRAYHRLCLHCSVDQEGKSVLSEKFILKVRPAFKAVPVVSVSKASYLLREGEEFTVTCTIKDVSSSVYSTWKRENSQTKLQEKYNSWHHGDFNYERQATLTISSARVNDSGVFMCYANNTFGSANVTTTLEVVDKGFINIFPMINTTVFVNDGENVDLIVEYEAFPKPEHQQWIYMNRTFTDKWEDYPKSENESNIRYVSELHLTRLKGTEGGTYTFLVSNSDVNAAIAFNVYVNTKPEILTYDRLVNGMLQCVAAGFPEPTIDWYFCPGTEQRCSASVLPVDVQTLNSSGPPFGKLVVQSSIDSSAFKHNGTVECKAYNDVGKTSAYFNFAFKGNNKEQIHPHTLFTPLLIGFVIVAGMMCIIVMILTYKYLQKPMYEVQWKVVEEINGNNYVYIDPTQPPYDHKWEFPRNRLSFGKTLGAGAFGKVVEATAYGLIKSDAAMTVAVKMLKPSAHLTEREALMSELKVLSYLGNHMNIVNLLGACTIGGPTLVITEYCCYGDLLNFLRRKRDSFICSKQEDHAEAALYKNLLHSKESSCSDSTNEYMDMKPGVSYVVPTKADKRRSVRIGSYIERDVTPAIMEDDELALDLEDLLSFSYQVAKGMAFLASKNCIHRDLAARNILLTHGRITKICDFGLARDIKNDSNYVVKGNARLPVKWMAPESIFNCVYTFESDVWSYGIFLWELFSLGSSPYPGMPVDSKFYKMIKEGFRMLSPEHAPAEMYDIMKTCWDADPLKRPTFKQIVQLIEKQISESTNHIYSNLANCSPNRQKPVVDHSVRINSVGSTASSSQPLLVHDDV
T2 sequence (P37173 23-567): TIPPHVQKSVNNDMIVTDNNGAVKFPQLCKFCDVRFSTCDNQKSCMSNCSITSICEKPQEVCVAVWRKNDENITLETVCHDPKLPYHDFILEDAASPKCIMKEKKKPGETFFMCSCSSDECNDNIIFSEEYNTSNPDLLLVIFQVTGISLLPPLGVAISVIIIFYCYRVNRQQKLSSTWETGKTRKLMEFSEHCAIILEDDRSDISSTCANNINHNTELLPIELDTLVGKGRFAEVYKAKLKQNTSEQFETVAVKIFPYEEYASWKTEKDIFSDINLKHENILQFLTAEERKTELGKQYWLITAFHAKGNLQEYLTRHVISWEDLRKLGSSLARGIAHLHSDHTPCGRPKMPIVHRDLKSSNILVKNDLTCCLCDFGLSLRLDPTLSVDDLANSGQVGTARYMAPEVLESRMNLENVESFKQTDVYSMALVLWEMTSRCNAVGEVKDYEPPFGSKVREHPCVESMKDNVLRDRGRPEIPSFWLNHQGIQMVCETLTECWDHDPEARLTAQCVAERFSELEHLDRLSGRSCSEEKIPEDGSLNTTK

## COc1cc(C(=O)N2CCC(N3CCN(C)CC3)CC2)ccc1Nc1ncc2c(n1)N(C1CCCC1)c1ccccc1C(=O)N2C [Compound 25, 11-cyclopentyl-2-((2-methoxy-4-(4-(4-methylpiperazin-1-yl)piperidine-1-carbonyl)phenyl)amino)-5-methyl-5H-benzo[e]pyrimido[5,4-b][1,4]diazepin-6(11H)-one]
Panel of 442 kinases [1]
  KINOMEscan: KIT(L576P): 93
Panel of 442 kinases [2]
  % Ctrl, TGFBR2: 100 % Ctrl
Panel of 442 kinases [3]
  KINOMEscan: PRKD3: 100

## COc1cc(C(=O)N2CCC(N3CCN(C)CC3)CC2)ccc1Nc1ncc2c(n1)N1CCc3cccc(c31)C(=O)N2C [Compound 24]
Panel of 442 kinases [2]
  % Ctrl, TGFBR2: 100 % Ctrl
Panel of 442 kinases [3]
  KINOMEscan: PRKD3: 19

## COc1cc(C(=O)N2CCC(N3CCN(C)CC3)CC2)ccc1Nc1ncc2c(n1)N(C)c1ccccc1C(=O)N2C [15 (LRRK2-IN-1)]
Panel of 442 kinases [1]
  KINOMEscan: KIT(L576P): 100
Panel of 442 kinases [2]
  % Ctrl, TGFBR2: 100 % Ctrl
Panel of 442 kinases [3]
  KINOMEscan: PRKD3: 42

## CCOc1cc(C(=O)N2CCC(N3CCN(C)CC3)CC2)ccc1Nc1ncc2c(n1)N(C1CCCC1)c1ccccc1C(=O)N2C [Compound 26]
Panel of 442 kinases [1]
  KINOMEscan: KIT(L576P): 100
Panel of 442 kinases [2]
  % Ctrl, TGFBR2: 100 % Ctrl
Panel of 442 kinases [3]
  KINOMEscan: PRKD3: 100
